How the values were obtained:
[1] = biological target: class A beta-lactamase TEM-1 (Escherichia coli, UniProt P62593); test: IC50 determination with nitrocefin, TEM-1; assay type: biochemical, E. coli; settings: pre-incubated 30 min at 37° C., phosphate buffer pH 7.0, nitrocefin
Description: (§1) The IC50 value represents the concentration of inhibitor required to effect a 50% loss of activity of free enzyme. A standard test for the production of beta-lactamase involves use of the chromogenic cephalosporin, nitrocefin.
(§2) Homogeneously purified class A beta-lactamases TEM-1 and SHV-1 from E. coli and class C enzyme P99 from Enterobacter cloaca were employed in the assay.
(§3) All the enzymes and compounds were dissolved in 50 mM phosphate buffer pH 7.0 and all further dilutions were done with the same buffer solution. Enzyme and compound dilutions were pre-incubated for 30 min at 37° C. and in a final volume of 500 μl. Than 10 μl of 5 mM nitrocefin (reporter substrate) was added to the solution and the absorbance at 482 nm was measured during 2 to 5 minutes. The initial rate was calculated for all the different solutions.

[2] = biological target: class A beta-lactamase SHV-1 (Escherichia coli, UniProt P0AD63); test: IC50 determination with nitrocefin, SHV-1; assay type: biochemical, E. coli
class A beta-lactamase SHV-1, sequence (P0AD63 22-286): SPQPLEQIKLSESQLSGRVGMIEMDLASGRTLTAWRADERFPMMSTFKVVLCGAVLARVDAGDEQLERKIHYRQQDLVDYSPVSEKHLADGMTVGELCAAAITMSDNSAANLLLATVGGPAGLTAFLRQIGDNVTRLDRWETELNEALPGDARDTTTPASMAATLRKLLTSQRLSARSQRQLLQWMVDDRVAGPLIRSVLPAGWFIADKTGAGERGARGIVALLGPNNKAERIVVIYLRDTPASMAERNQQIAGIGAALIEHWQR
Description: as §1, §2, §3

[3] = biological target: class C beta-lactamase P99 (AmpC) (Enterobacter cloacae, UniProt P05364); test: biochemical; assay type: biochemical
class C beta-lactamase P99 (AmpC), sequence (P05364 21-381): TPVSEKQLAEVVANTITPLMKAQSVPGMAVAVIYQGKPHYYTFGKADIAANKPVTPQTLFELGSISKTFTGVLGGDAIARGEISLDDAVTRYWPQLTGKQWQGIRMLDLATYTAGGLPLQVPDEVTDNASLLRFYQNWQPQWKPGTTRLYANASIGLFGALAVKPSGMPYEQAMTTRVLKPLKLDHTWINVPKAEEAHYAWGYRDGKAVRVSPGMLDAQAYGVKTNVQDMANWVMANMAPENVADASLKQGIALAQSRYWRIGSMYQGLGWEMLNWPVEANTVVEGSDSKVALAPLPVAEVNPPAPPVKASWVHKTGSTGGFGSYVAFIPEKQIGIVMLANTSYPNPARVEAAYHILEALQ
Description: as §1, §2, §3

E. cloacae Lek 24 (AmpC) = test: Broth microdilution MIC, S1; assay type: cell-based; settings: CAMHB, 35° C., 24 h, duplicate
Description: (§4) Stock solutions of the test compounds and Tazocin® were prepared in distilled water according to the CLSI guidelines [Methods for dilution antimicrobial tests for bacteria that grow aerobically. NCCLS document M7-A5; 2000; vol. 19. Clinical and Laboratory Standards Institute, Villanova, Pa.].
(§5) All tested strains and clinical isolates were either purchased from the American Type Culture Collection (ATCC), or from the in-house company culture collection. The tested strains were purely used for the purposes of illustrative example, and are by no means essential for performing the invention.
(§6) The strains were processed according to procedures recommended by ATCC, or procedures that are routinely used. Frozen bacterial stocks were thawed to room temperature, and a few drops were placed on an appropriate blood agar plate. The cultures were subcultured on a fresh Mueller-Hinton agar plate (MHA) the following day, and the subcultures were again incubated overnight.
(§7) Bacterial suspensions with a turbidity equivalent to that of a 0.5 McFarland standard were prepared by suspending a tiny portion of one colony from blood agar plates in 2 mL of sterile saline. […]
(§8) The in vitro activities of the antibiotics were determined by the broth microdilution method as recommended by CLSI guidelines. […]

[4] = system: E. cloacae Lek 14, derepressed (AmpC); test: Broth microdilution MIC, S2; assay type: cell-based; settings: CAMHB, 35° C., 24 h, duplicate
Description: as §4, §5, §6, §7, §8

E. cloacae 4013 = test: Broth microdilution MIC, S3; assay type: cell-based; settings: Enterobacter cloacae, CAMHB, 35° C., 24 h, duplicate
Description: as §4, §5, §6, §7, §8

[5] = system: E. caerogenes ATCC 29751 (class II); test: Broth microdilution MIC, S4; assay type: cell-based; settings: CAMHB, 35° C., 24 h, duplicate
Description: as §4, §5, §6, §7, §8

E. faecalis ATCC 29212 = test: Broth microdilution MIC, S5; assay type: cell-based; settings: Enterococcus faecalis, ATCC29212, CAMHB, 35° C., 24 h, duplicate
Description: as §4, §5, §6, §7, §8

[6] = system: K. pneumoniae B312 (SHV-18); test: Broth microdilution MIC, S6; assay type: cell-based; settings: Klebsiella pneumoniae, CAMHB, 35° C., 24 h, duplicate
Description: as §4, §5, §6, §7, §8

K. pneumoniae DSA 1461 = test: Broth microdilution MIC, S7; assay type: cell-based; settings: Klebsiella pneumoniae, DSA1461, CAMHB, 35° C., 24 h, duplicate
Description: as §4, §5, §6, §7, §8

[7] = system: K. pneumoniae ATCC 700603 (SHV-18); test: Broth microdilution MIC, S8; assay type: cell-based; settings: Klebsiella pneumoniae, ATCC700603, CAMHB, 35° C., 24 h, duplicate
Description: as §4, §5, §6, §7, §8

C. freundii B271 (SHV-5) = test: Broth microdilution MIC, S9; assay type: cell-based; settings: CAMHB, 35° C., 24 h, duplicate
Description: as §4, §5, §6, §7, §8

C. freundii B318 (CTX-M) = test: Broth microdilution MIC, S10; assay type: cell-based; settings: Citrobacter freundii, CAMHB, 35° C., 24 h, duplicate
Description: as §4, §5, §6, §7, §8

E. coli B308 = test: Broth microdilution MIC, S12; assay type: cell-based; settings: Escherichia coli, CAMHB, 35° C., 24 h, duplicate
Description: as §4, §5, §6, §7, §8

E. coli B309 = test: Broth microdilution MIC, S13; assay type: cell-based; settings: Escherichia coli, CAMHB, 35° C., 24 h, duplicate
Description: as §4, §5, §6, §7, §8

E. faecalis Lek 112 = test: Broth microdilution MIC, S14; assay type: cell-based; settings: Enterococcus faecalis, LEK112, CAMHB, 35° C., 24 h, duplicate
Description: as §4, §5, §6, §7, §8

E. faecium Lek 116 = test: Broth microdilution MIC, S15; assay type: cell-based; settings: Enterococcus faecium, LEK116, CAMHB, 35° C., 24 h, duplicate
Description: as §4, §5, §6, §7, §8

K. pneumoniae Lek 8 = test: Broth microdilution MIC, S16; assay type: cell-based; settings: Klebsiella pneumoniae, LEK8, CAMHB, 35° C., 24 h, duplicate
Description: as §4, §5, §6, §7, §8

[8] = system: K. pneumoniae B401 (TEM-10, TEM-12); test: Broth microdilution MIC, S17; assay type: cell-based; settings: Klebsiella pneumoniae, CAMHB, 35° C., 24 h, duplicate
Description: as §4, §5, §6, §7, §8

K. pneumoniae Lek 22 = test: Broth microdilution MIC, S18; assay type: cell-based; settings: Klebsiella pneumoniae, LEK22, CAMHB, 35° C., 24 h, duplicate
Description: as §4, §5, §6, §7, §8

[9] = system: C. freundii Lek 17 (AmpC); test: Broth microdilution MIC, S19; assay type: cell-based; settings: Citrobacter freundii, CAMHB, 35° C., 24 h, duplicate
Description: as §4, §5, §6, §7, §8

[10] = system: ceftazidime-resistant strains; test: Broth microdilution susceptibility assay, overall comparison; assay type: cell-based; settings: in words, several ceftazidime-resistant strains tested
Description: as §4, §5, §6, §7, §8

[11] = in words, compared to tazobactam

class A beta-lactamase TEM-1, sequence (P62593 24-286 limits assumed): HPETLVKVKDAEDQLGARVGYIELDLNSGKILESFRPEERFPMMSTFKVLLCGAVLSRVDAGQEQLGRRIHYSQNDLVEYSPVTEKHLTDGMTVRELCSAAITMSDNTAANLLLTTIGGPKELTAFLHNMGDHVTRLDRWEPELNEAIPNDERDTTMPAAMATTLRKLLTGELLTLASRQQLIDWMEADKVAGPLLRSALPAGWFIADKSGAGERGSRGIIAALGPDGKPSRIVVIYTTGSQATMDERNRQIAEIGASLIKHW

With `CO[C@H]1CCC[C@H]2C1=C(C(=O)O)N1C(=O)[C@H]([C@H](O)C(F)(F)F)[C@@H]21` [LK-178, Sodium (4S,8S,9R,10S)-4-methoxy-10-[1-(S)-hydroxy-2,2,2-trifluoroethyl]-11-oxo-azatricyclo[7.2.0.0^3,8]undec-2-ene-2-carboxylate] the IC50 [1] was 8400 nM, the IC50 [2] was 1100 nM and the IC50 [3] was 419 nM.

`CO[C@H]1CCC[C@H]2C1=C(C(=O)[O-])N1C(=O)[C@H]([C@H](O)CF)[C@@H]21.[Na+]` [LK-180, Sodium salt of (4S,8S,9R)-4-methoxy-10-(1-(S)-hydroxy-fluoroethyl)-11-oxo-1-azatricyclo-[7.2.0.0 (3,8)]undec-2-ene-2-carboxylic acid] was tested, and the IC50 [1] was 500 nM, the IC50 [2] was 12 nM and the “activity against SHV-1 enzyme as compared to tazobactam” value [2, 11] was “highly potentiated activity”. For the same compound, the IC50 [3] was 0.5 nM, the “activity against AmpC enzyme as compared to tazobactam” value [3, 11] was “highly potentiated activity” and the “MIC S1” value (E. cloacae Lek 24 (AmpC)) was 4 µg/mL. The MIC (E. cloacae Lek 24 (AmpC); Enterobacter cloacae) was 8 µg/mL, the “MIC S2” value [4] was 4 µg/mL and the MIC (E. cloacae 4013) was 64 µg/mL. It also gave an MIC [5] of 16 µg/mL, an MIC (E. faecalis ATCC 29212) of 4 µg/mL and an MIC [6] of 8 µg/mL. For the same compound, the MIC (K. pneumoniae DSA 1461) was 4 µg/mL, the MIC [7] was 2 µg/mL and the “MIC S9” value (C. freundii B271 (SHV-5)) was 16 µg/mL. It also gave an MIC (C. freundii B318 (CTX-M)) of 128 µg/mL, an MIC (E. coli B308) of 4 µg/mL and an MIC (E. coli B309) of 4 µg/mL. It also gave an MIC (E. faecalis Lek 112) of 4 µg/mL, an MIC (E. faecium Lek 116) of 32 µg/mL and an MIC (K. pneumoniae Lek 8) of 16 µg/mL. For the same compound, the MIC [8] was 8 µg/mL, the MIC (K. pneumoniae Lek 22) was 32 µg/mL and the MIC [9] was 8 µg/mL. The “antibiotic activity compared to Tazocin®” value [10] was “superior to Tazocin®”.

— patent US20110166118A1, “NEW TRINEM ANTIBIOTICS AND INHIBITORS OF BETA-LACTAMASES” (LEK PHARMACEUTICALS D.D., priority 2008, published 2011)
